Key:
[1] = compared with F3P; cited from earlier work
[2] = pKa of the phosphorylated metabolites (Table 1); format: physicochemical
Description: While the toxic potential and precise structures of compounds a and b are not known, they have many characteristics in common with S3P and F3P, such as unique chemical shifts, large ^1 H-^31 P spin-spin coupling constants and unusually low pKa' values (see Table 1). In these properties, Compounds a and b differ substantially from other phosphomonoesters and thus appear to belong to the same class of compounds as S3P and F3P. […] There is a good correlation between these elevated concentrations and the presence of clinical symptoms of diabetic complications such as retinopathy, peripheral neuropathy and peripheral vascular disease. This correlation is especially striking when one compares the sum of the concentrations of compounds a and b with the concentration of S3P ([a]+[b]/[S3P]).
Compound (at pH 7.5) (Hz) pKa

[3] = test system: erythrocytes; assay: Effect of fructose-3-phosphate on red cell viability, 31P NMR; format: cell-based, human
Procedure: FIGS. 3A-C are ^31 P NMR spectra showing the effect of fructose-3-phosphate on red cell viability.
Spectra were collected in 250-5000 scans using a 60° pulse and a 1.5 sec. repetition rate.
FIGS. 3A-C illustrates the results of an experiment which confirms that this indeed is the case for erythrocytes. […] This phenomenon indicates very strongly that F3P is indeed a toxic agent which, at sufficiently high concentration, leads to an irreversible decline in cell function and ultimately to cell death.

[4] = Glycosylating activity and lability
Description: A difficult problem encountered in the medical treatment of diabetes has been the inability to identify those diabetic patients who are at risk of experiencing some diabetes-associated pathologic condition, so as to effect timely intervention. […] Kato, M., Hayase, F., Shin, D. B., Oimomi, M. and Baba, S. (1989), The Maillard Reaction in Aging, Diabetes and Nutrition, J. W. Baynes and V. M. Monnier, eds, at 69-84 (Liss, New York, 1989).

[5] = erythrocytes loaded with F3P, then 12 hrs. in fructose-free medium

## O=CC(=O)C[C@H](O)[C@H](O)CO [Compound 3dG, 3-deoxyglucosone]
[1]
  glycosylating and cross-linking potency: even more potent Maillard glycosylating and cross-linking agent

## O=C(CO)[C@@H](OP(=O)(O)O)[C@H](O)[C@H](O)CO [Compound F3P, fructose-3-phosphate]
[2]
  pKa: 5.6
[3]; at sufficiently high concentration
  toxicity to erythrocytes: toxic agent
[3]; [5]
  concentration of ATP: dramatic decrease
  hemolysis of the cells: extensive hemolysis
[4]
  glycosylating potency: relatively potent glycosylating agent
[4]; especially in the presence of amines, breaks down to 3-deoxyglucosone
  lability: quite labile

## O=P(O)(O)O[C@@H]([C@H](O)[C@H](O)CO)[C@@H](O)CO [Compound S3P, sorbitol-3-phosphate]
[2]
  pKa: 5.4

— patent US5231031A, “Method for assessing risk of diabetes-associated pathologic conditions and efficacy of therapies for such conditions” (priority 1990, dated 1993)
